BindingDB's records for doi:10.1074/jbc.M112.356576 (University of Adelaide, 2012)

Target: T1, Bifunctional ligase/repressor BirA (Staphylococcus aureus, UniProt A0A3A5LBF0)
T1 sequence (A0A3A5LBF0 whole entry): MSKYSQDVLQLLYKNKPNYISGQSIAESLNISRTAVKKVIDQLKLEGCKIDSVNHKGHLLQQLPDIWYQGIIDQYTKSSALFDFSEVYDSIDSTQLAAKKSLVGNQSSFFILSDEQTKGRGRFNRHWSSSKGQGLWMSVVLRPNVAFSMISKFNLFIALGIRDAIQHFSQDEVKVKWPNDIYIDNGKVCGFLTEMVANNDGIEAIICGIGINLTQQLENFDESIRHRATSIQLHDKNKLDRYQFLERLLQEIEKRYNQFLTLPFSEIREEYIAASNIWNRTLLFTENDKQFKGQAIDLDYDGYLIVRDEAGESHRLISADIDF
Assay: Enzyme Inhibition Assay
Text: In vitro enzyme inhibition using biotin protein ligase.

Structure (SMILES) | Ki [nM]
Nc1ncnc2c1NCN2[C@@H]1O[C@H](Cn2cc(CCCCC[C@@H]3SCC4NC(=O)NC43)nn2)[C@@H](O)[C@H]1O (stereo partly drawn) [Biotin triazole, 5] | 1170
CC(C)(C)C(=O)OCCn1cc(CCCCC[C@@H]2SCC3NC(=O)NC32)nn1 (stereo partly drawn) [Biotin triazole, 10] | > 10000
O=C1NC2CS[C@@H](CCCCCc3cn(CCCCOc4ccccc4)nn3)C2N1 (stereo partly drawn) [Biotin triazole, 11] | > 10000
O=C1NC2CS[C@@H](CCCCCc3cn(CCCCOc4cccc5ccccc45)nn3)C2N1 (stereo partly drawn) [Biotin triazole, 12] | > 10000
O=C1NC2CS[C@@H](CCCCCc3cn(CCCCOc4ccc5ccccc5c4)nn3)C2N1 (stereo partly drawn) [Biotin triazole, 13] | 1170
Cc1ccc2oc(=O)n(CCCCn3cc(CCCCC[C@@H]4SCC5NC(=O)NC54)nn3)c2c1 (stereo partly drawn) [Biotin triazole, 14] | 90
O=C1NC2CS[C@@H](CCCCCc3cn(CCCOc4ccc5ccccc5c4)nn3)C2N1 (stereo partly drawn) [Biotin triazole, 15] | > 10000
Cc1ccc2oc(=O)n(CCCn3cc(COCCC[C@@H]4SCC5NC(=O)NC54)nn3)c2c1 (stereo partly drawn) [Biotin triazole, 16] | > 10000
